# Laboratory results published in US20030073218A1, “High affinity inhibitors for target validation and uses thereof” (Princeton University, priority 1999, published 2003).
# “Also recorded” adds a separate entry of the source. Read-outs that look alike come from different tables or passages of the source.
# Experiments:
# [1] = system: wild-type cellular kinase in murine lymphocyte lysates; assay: In vitro kinase reactions with radiolabeled nucleotide in murine lymphocyte lysates; type: biochemical; settings: 100 μM radiolabeled nucleotide, 37° C., 10 min
# Experimental: For this it is preferably that no wild-type kinase, including ser/thr specific kinase (which carry out the bulk of cellular phosphorylation, as only 0.03% of all phosphoamino acids are tyrosine) (65), substantially accept the synthetic substrate. To establish that [γ-^32P]
# These assays were performed in a manner similar to the procedure set forth in Example 2, with the exception of the use of radiolabeled [γ-^32P] […] Proteins were separate by 12.5% SDS-PAGE. The gel was soaked in 10% acetic acid, 10% isopropanol for 1 h. after which it was dried in a gel dryer and exposed to Biomax MS film (Kodak # 111-1681) for 1 h.
# [2] = target: T1, GST-XD4(V323A, I338A) (Rous sarcoma virus subgroup A, UniProt P00524, DEL77-225/I338A/V323A); assay: Autophosphorylation with radiolabeled nucleotide (autoradiogram); type: biochemical; settings: FIG. 5C lane 4
# T1 construct: mutant of the v-Src catalytic domain, (the XD4 fragment) were made as glutathione S-transferase (GST) fusion proteins; made in house; host or cells: E. coli (DH5a), pGEX-KT
# Text: (§1) It is even more significant that the new substrate, [γ-^32P] […] FIG. 5C is an autoradiogram showing [γ-^32P]
# [3] = system: GST-XD4(V323A, I338A); settings: 100 μM analog, 10 μM [γ-32P] ATP
# [4] = target: T2, GST-XD4 (Rous sarcoma virus subgroup A, UniProt P00524, DEL77-225); assay: biochemical; type: biochemical; parameters: mutant of the v-Src catalytic domain, (the XD4 fragment) were made as glutathione S-transferase (GST) fusion proteins; made in house; host or cells: E. coli (DH5a), pGEX-KT
# Experimental: (§2) Kinetic constants were determined by analysis of Lineweaver-Burk plots of the rate data (64).
# [5] = target: T2, GST-XD4; assay: Autophosphorylation with radiolabeled nucleotide (autoradiogram); type: biochemical; parameters: mutant of the v-Src catalytic domain, (the XD4 fragment) were made as glutathione S-transferase (GST) fusion proteins; made in house; host or cells: E. coli (DH5a), pGEX-KT; settings: GST-XD4, FIG. 5C lane 3
# Text: as §1
# [6] = target: T1, GST-XD4(V323A, I338A); type: biochemical
# Experimental: as §2
# [7] = system: protein tyrosine kinase in murine lymphocyte cell lysate (CF); assay: Screening of ATP analogs as kinase substrates in murine lymphocyte lysate (anti-phosphotyrosine immunoblot); type: biochemical; settings: 100 uM nucleotide triphosphate, 37° C., 5 min
# Experimental: Screening of Nucleotide Analogs: To identify compounds that would not be accepted as substrates by any existing cellular kinase (53), a panel of synthetic A*TP analogs were screened in a murine lymphocyte lysate (CF) rich in protein tyrosine kinase (13). The assays were performed using spleenocytes (8-30 week old male and female C57/B6 mice from the Princeton University Animal Facility) which were isolated and washed in RPMI-1640 medium containing 5% Bovine Calf Serum (BCS), 1% Hepes and DNAseI (1 μg/ml). Red cells were lysed at 4° C. by treatment with 17 mM tris ammonium chloride pH 7.2. The cells were hypotonically lysed on ice for 10 min. In 1 mM Hepes pH 7.4, 5 mM MgCl2, leupeptin (10 μg/ml), aprotinin (10 μg/ml) and 100 uM PMSF according to the method of Fukazawa et. al. (51). After vortexing and centrifuigation at 500 xg, the supernatant was collected. Cells were stored at 4° C. for 20 min. To attenuate the basal protein phosphorylation level, after which the buffer was adjusted to 20 mM Hepes pH 7.4, 10 mM MgCl2 and 1 mM NaF. Sodium vanadate (100 uM) was then added to inhibit the activity of phosphotyrosine phosphatases.
# Each nucleotide triphosphate was added to a final concentration of 100 uM to 5×10^6 cell equivalents and incubated at 37° C. for 5 min. after which 4X Laemmli gel loading buffer was added to the cell lysate to quench the reaction. Proteins were separated by 12.5% SDS-PAGE and transferred to Protran BA85 (Schleicher-Schuell). The blot was probed with the anti-phosphotyrosine monoclonal antibody 4G10 (Upstate Biotechnology) and the bound antibody was detected via enhanced chemiluminescence (cat. 34080, Pierce) following treatment with HRP- coupled goat-anti-mouse antibody (VWR cat. 7101332) according to the manufacturer's instructions.
# The cell lysate used includes the protein tyrosine kinase Src, Fyn, Lck, Lyn, Yes, Fgr, Hck, Zap, Syk, Btk, Blk, and other protein tyrosine kinase present in B and T lymphocytes, macrophages, and follicular dendritic cells (13). Molecular size standards (in kilodaltons) are indicated.
# [8] = system: I338G v-Src transformed NIH3T3 fibroblasts; assay: Microscopy of cell morphology and polymerized actin; type: cell-based, murine; settings: 100 mM 3g, 48 hours
# Experimental: FIG. 21A show non-transformed NIH3T3 cells.
# Microscopy: Non-transformed, WT v-Src transformed, and 1338G v-Src transformed NIH3T3 fibroblasts were grown in DMEM/10% BCS on tissue culture treated slides. V-Src expressing cells were treated with either 1.1% DMSO or […] 3g in 1.1% DMSO. After 48 hours cells were photographed at 400(magnification on an Nikon TMS light microscope. Immediately following light microscopy, the cells were fixed for 20 min in 3.7% formaldehyde/PBS and permeabilized for 60 sec in 0.2% Triton X-100(/PBS. Permeabilized cells were incubated with 200 ng/mL phalloidin-FITC/PBS for 20 min. Slides were rinsed with PBS and polymerized actin was visualized by fluorescence microscopy at 600( magnification on a Zeiss fluorescence microscope.
# [9] = target: T3, PKCd (Homo sapiens, UniProt Q05655); assay: In Vitro Kinase Inhibition Assay; type: biochemical; settings: at concentrations up to 300 mM
# T3 construct: 6-His; made in house; host or cells: Bac-to-Bac baculovirus expression system (pFastBac B vector)
# [10] = system: WT v-Src transformed NIH3T3 cells; assay: Inhibition of v-Src in NIH3T3 fibroblasts (phosphotyrosine blot); type: cell-based, murine; settings: 100 mM 3g, 12 hours
# Experimental: Tyrosine phosphorylated proteins were visualized as in FIG. 20A.
# Retroviral Infection of NIH 3T3 Fibroblasts: Genes encoding WT and I338G v-Src were transfected into a packaging cell line and NIH 3T3 fibroblasts were retrovirally infected using the pBabe retroviral vector and a puromycin ([…]) selectable marker as described (Shah, K., Liu, Y., Shokat, K. M., in preparation). WT and I338G v-Src transformed cells were cultured in DMEM/10% BCS containing […] puromycin).
# After 12 hours, the cells were washed with PBS and lysed (lysis buffer: 1% Triton X-100, 50 mM tris pH 7.4, 2 mM EDTA, 150 mM NaCl, […], 2 mM sodium orthovanadate, 10 mg/mL leupeptin, 10 mg/mL apoprotin). The lysate was clarified by centrifugation at 13,000 rpm for 15 min. Lysate protein concentrations were normalized and equal volumes of the lysate were resolved electrophoretically and analyzed for phosphotyrosine content as described above.
# [11] = target: T4, PKA (Homo sapiens, UniProt P17612); assay: In Vitro Kinase Inhibition Assay; type: biochemical; settings: at concentrations up to 300 mM
# T4 construct: purchased Pierce
# Text: PKA was purchased (Pierce) and used without further purification.
# [12] = target: T5, I338G v-Src (Rous sarcoma virus subgroup A, UniProt P00524, DEL77-225/I338G); assay: biochemical; type: biochemical
# T5 construct: screened against the catalytic domain of the target kinase, I338G v-Src; made in house; host or cells: E. coli DH5a, pGEX-KT
# [13] = system: B cell receptor (BCR) mediated phosphorylation cascade in murine B cells; assay: Murine B Cell Assay (phosphotyrosine blot after anti-IgM stimulation); type: cell-based; parameters: dose or concentration left out as unconfirmed; settings: 30 minutes, anti-IgM cross linked murine B cells
# Experimental: Murine B Cell Assay: Splenic lymphocytes were isolated from 6-20 week old Balb/c or C57/B6 mice. The cells were washed out of the spleen into RPMI media containing 1 mg/mL DNase in and the red blood cells were lysed in 17 mM tris-ammonium chloride, pH 7.2, Approximately 4×10^6 cells were incubated at 37° C. for 30 minutes with […] of 3 g or 2 in 1.1% DMSO. B cell stimulation was initiated by the addition of 2 mg of goat anti-mouse IgM (Jackson Immuno Research, cat# 115-005-075) and subsequent incubation for 5 minutes at 37(C. The cells were isolated by centrifugation (13,000 rpm, 2 min) and lysed (lysis buffer: 1% Triton X-100, 50 mM tris pH 7.4, 2 mM EDTA, 150 mM NaCl, […] PMSF, 2 mM sodium orthovanadate, 10 mg/mL leupeptin, 10 mg/mL apoprotin). The cellular debris was then pelleted at 13,000 rpm for 15 min. Cellular proteins were separated by 10% polyacrylamide gel electrophoresis and transferred to a nitrocellulose membrane by Western blotting. Phosphotyrosine containing proteins were visualized by immunoblotting with anti-phosphotyrosine antibody (Upstate Biotechnology, Inc.).
# [14] = target: wild-type Fyn (Homo sapiens, UniProt P06241); assay: Peptide phosphorylation assay, screening of inhibitors orthogonal to wild-type kinases; type: biochemical; settings: read-out: IC50 for inhibition of wild-type Fyn
# Text: Screening of inhibitors which are orthogonal to wild-type kinases: To identify compounds that would not inhibit any existing cellular kinases, the panel of synthetic pyrazolo pyrimidine analogs (1-6) (FIG. 10) were screened against two closely related purified protein tyrosine kinases, v-Src and Fyn, in a peptide phosphorylation assay using [γ-^32P]
# [15] = target: T6, Cdc28-as1 · MBP-Clb2 (Saccharomyces cerevisiae, UniProt P00546, F88G); type: biochemical
# T6 construct: made in house; host or cells: Sf9 insect cells, baculovirus, co-infected with Cak1-HA3 (Cdc28-as1-His6); bacteria (MBP-Clb2)
# [16] = target: T2, GST-XD4; settings: read-out: KM for protein substrate RR-Src at saturated nucleotide
# [17] = GST-XD4, 1 mM RR-Src, 37° C., pH 8.0
# T6 sequence (P00546 whole entry F88G): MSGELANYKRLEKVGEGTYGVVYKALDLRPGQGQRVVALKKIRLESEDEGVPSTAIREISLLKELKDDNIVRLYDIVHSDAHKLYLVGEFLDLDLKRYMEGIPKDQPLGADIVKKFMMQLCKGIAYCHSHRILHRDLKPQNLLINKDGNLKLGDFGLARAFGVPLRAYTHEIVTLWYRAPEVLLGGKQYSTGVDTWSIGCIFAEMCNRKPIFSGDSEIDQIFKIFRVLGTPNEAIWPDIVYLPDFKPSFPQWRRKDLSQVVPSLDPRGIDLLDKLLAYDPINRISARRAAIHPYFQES
# T6 sequence (P24869 whole entry, further chain): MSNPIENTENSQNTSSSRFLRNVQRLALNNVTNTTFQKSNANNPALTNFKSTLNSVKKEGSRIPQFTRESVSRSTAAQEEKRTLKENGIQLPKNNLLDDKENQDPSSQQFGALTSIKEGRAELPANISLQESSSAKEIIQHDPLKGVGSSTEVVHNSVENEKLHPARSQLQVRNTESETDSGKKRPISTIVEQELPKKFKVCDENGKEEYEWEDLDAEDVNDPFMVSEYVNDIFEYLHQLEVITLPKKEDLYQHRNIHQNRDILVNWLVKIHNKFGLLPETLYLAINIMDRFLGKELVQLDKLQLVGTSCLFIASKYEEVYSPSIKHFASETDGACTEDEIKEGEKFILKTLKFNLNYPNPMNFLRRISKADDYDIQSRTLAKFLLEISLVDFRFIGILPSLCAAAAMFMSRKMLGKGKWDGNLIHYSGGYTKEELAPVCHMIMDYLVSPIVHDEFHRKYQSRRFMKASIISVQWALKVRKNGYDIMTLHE
# Chain of wild-type Fyn (P06241 1-534 isoform P06241-2, species assumed): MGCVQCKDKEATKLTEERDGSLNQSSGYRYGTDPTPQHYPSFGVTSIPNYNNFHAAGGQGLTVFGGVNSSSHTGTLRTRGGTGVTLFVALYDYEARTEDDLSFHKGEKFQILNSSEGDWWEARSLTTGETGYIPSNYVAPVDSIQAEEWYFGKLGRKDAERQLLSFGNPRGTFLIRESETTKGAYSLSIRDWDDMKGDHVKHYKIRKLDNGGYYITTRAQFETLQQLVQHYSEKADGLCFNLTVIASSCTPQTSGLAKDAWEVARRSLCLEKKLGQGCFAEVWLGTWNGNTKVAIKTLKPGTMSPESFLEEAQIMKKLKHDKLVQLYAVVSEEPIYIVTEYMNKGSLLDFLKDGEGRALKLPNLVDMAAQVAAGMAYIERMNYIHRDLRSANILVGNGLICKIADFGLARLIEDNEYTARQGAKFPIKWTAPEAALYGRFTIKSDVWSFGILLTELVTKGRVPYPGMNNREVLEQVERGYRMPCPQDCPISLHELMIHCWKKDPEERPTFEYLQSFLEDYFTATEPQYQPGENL
# T3 sequence (Q05655 whole entry, species assumed): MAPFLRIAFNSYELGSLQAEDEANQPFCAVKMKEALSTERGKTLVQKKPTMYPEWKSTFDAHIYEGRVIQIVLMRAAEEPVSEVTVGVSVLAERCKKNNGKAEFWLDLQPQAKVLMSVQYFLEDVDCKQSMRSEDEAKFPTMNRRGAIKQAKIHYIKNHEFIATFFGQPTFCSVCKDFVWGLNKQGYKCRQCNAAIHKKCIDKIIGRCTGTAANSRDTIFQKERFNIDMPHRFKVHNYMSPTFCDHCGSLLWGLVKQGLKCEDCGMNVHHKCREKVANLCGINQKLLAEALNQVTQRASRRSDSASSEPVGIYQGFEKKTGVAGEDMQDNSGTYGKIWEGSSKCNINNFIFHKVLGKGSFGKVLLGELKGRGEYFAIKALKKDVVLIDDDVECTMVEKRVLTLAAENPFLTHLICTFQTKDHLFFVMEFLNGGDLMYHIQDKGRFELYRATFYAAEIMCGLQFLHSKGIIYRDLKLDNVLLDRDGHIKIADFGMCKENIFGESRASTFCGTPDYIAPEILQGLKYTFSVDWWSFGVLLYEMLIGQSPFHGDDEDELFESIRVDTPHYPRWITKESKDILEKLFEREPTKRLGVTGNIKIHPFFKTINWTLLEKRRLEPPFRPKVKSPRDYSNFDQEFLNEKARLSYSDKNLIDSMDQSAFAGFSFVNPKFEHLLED
smiles,measurement,setting,value
"O=P(O)(O)OP(=O)(O)OP(=O)(O)OC[C@H]1O[C@@H](n2cnc3c(NC4CCCC4)ncnc32)[C@H](O)[C@@H]1O [ATP analog 8, N^6(cyclopentyl)ATP]",radiolabeled phosphoproteins in cell lysate,[1],no radiolabeled phosphoproteins in the cell lysate
same,use as phosphodonor for autophosphorylation,[2],efficiently autophosphorylated
same,"inhibition of GST-XD4(V323A, I338A) catalyzed RR-Src phosphorylation",[3],"almost as well as the wild-type kinase, GST-XD4, is inhibited by its natural substrate ATP"
same,Ki,[4],2000 µM
same,phosphorylation of RR-Src peptide with the nucleotide as phosphate donor,[4]; wild-type GST-XD4,did not substantially phosphorylate the RR-Src peptiide
same,use as phosphodonor for autophosphorylation,[5],apparent complete inability of GST-XD4 to use this analog as a phosphodonor for autophosphorylation
same,phosphorylation of RR-Src peptide with the nucleotide as phosphate donor,[6],displayed Michaelis-Menten kinetics
same,ability to serve as cellular protein tyrosine kinase substrate (level of protein tyrosine phosphorylation),[7],slightly lower level of phosphorylation with wild-type kinase
"CC(C)(C)c1ccc(C(=O)Nc2ncnc3c2c(-c2ccccc2)nn3C(C)(C)C)cc1 [Compound 3g, 4-(p-tert-butyl)benzamido-1-tert-butyl-3-phenylpyrazolo[3,4-d]pyrimidine]",cell morphology and polymerized actin,[8],appeared flat and did not exhibit growth characteristics of transformed cells; also recorded: have defined polymerized actin strings
same,inhibition of PKCd,[9],not detectably inhibited
same,tyrosine phosphorylation,[10],but not WT v-Src transformed NIH3T3 fibroblasts; also recorded: causes no loss of tyrosine phosphorylation
same,inhibition of PKA,[11],not detectably inhibited
same,mode of inhibition of I338G v-Src,[12]; Lineweaver-Burk analysis,competitively with respect to ATP
same,Ki,"[12]; Lineweaver-Burk analysis at various ATP concentrations, read-out: inhibitory constant (Ki), I338G v-Src",~0.4 µM
same,phosphotyrosine pattern of B cell stimulation,[13],no effect on the phosphotyrosine pattern of B cell stimulation
"CC(C)(C)n1nc(-c2ccccc2)c2c(NC(=O)c3ccccc3)ncnc21 [Compound 3e, 4-benzamido-1-tert-butyl-3-phenylpyrazolo[3,4-d]pyrimidine]",IC50,[14],> 400 µM
"Nc1ncnc2c1ncn2[C@@H]1O[C@H](COP(=O)(O)OP(=O)(O)OP(=O)(O)O)[C@@H](O)[C@H]1O [ATP, adenosine triphosphate]",reduction in binding affinity for ATP relative to wild-type Cdc28,[15],10 fold
same,reduction in maximum ATP turnover rate relative to wild-type Cdc28,[15],6 fold
same,Km,[16],2600 ± 900 µM
same,Km,[4]; [17],12 ± 3 µM
same,kcat,[4]; [17],0.033 ± 0.0083 s⁻¹
